Results on five substances are retold here after PMC3158827 (ACS chemical biology, 2011).

Non-standard residues stand in square brackets, D forms with d. No end group written: not given here.

Series [1] deals with thrombin. The note with it: cited from earlier work.
For series [2], the target named is thrombin. The note with it: cited from earlier work. This is another data set of the same source.
In series [3] the target is plasma kallikrein. The note with it: cited from earlier work.
For series [4], the system named is chymotrypsin. Put plainly: chymotrypsin. The note with it: 37°C, up to 120 minutes.
Series [5] relates to trypsin. The following applies: cited from earlier work.

As usually defined, the Ki is the dissociation constant of the complex between target and ligand, obtained from inhibition or displacement. As for bivalirudin, in series [1], the association rate constant is 4e+08 M⁻¹ s⁻¹ and the dissociation rate was 0.8 s⁻¹. The Ki in series [2] is 2 nM. Take Ecallantide: the Ki in series [3] was 0.044 nM. For the substance [dF]PRP, the thrombin inhibition result in series [2] (concentrations up to 10 µM) is listed as “does not significantly inhibit thrombin”. For the substance GGSCIDGGRLMCGGS, in series [4], the cleaved bond result is “methionine-C”. For the substance ω-conotoxin MVIIa, the degradation by trypsin entry in series [5] was “degraded”.
